In patent US12611459B2, “System and method for unbinding of plasma protein-bound active agents using an ultrasound system” (The Brigham and Women's Hospital, Inc., priority 2019, dated 2026):

How the values were obtained:
[1] = test system: plasma proteins, primarily albumin; details: cited from earlier work
[2] = target: bovine serum albumin (BSA) (Bos taurus, UniProt P02769); assay: equilibrium dialysis of albumin-phenytoin solution under focused ultrasound (FUS), HPLC of dialysate; type: in vitro ADME; details: for phenytoin level in dialysate: FUS 250 kHz, 55 ms TBD, 4 Hz PRF, 5 W/cm2 Isppa, 55 min; for elevation of unbound phenytoin level at the focus: p<0.05
Method: The ability of FUS to unbind phenytoin from albumin was assessed in this example by an equilibrium dialysis (ED), whereby the cocktail of albumin-phenytoin was sonicated, and unbound phenytoin was allowed to pass through the membrane to be collected and analyzed. As a part of in vitro testing, a visible dye, Toluidine Blue O, was dissolved in an aqueous solution of albumin and the spatial distribution of the degree of its unbinding from the albumin through the application of FUS was qualitatively evaluated via gel infiltration using agar gel block.
In this example, an in vitro experimental chamber was constructed using a 3D printer (clear resin) to measure the effects of FUS on albumin-phenytoin binding. The chamber includes four slots to place four microdialysis cassettes (7 kMW cut-off pore size; 4×4×0.8 cm; H×L×W) whereby one is placed perpendicular to the sonication focus (‘FF’), and three others are placed away from the focus (‘F01’ through ‘F03’). A FUS transducer having 13 mm focal length (away from the exit plane) and operating at a fundamental frequency of 250 kHz was used to sonicate the middle of the dialysis window (‘FF’). The output pressure wave from the transducer was calibrated for the input signal generator and the acoustic map perpendicular to the sonication axis was mapped using known methods. An identical setup was prepared separately and was not sonicated to provide a control.
In this example, bovine serum albumin (BSA) was dissolved in a phosphate-buffered saline (PBS) (pH7.4) at a concentration of 46 mg/mL concentration, and 200 mL of resulting solution was poured into the chamber. The experiment was conducted at a room temperature (20-21° C.) and the solution temperature was equilibrated at the ambient temperature. The solution was not degassed and kept the ambient gas content (O2 6.1 ppm; measured using dissolved oxygen meter). The wall of the chamber was padded with rubber inserts to absorb the incident acoustic waves to prevent reflection or reverberation within the chamber.
In this example, phenytoin was dissolved (15 μg/mL) in PBS having bovine serum albumin (BSA) concentration of 45 mg/mL to emulate the clinical serum concentration. The temperature of the solution was monitored during the sonication to examine the potential effect from the temperature of the solution on the bound phenytoin. The dialysis cassettes, after hydration according to known methods, were filled with PBS (0.5 ML) and were placed into the bath. Subsequently, sonication was given for 55 min at 250 kHz in pulsed manner (55 ms TBD, 4 Hz PRF, at 5 W/cm2 Isppa Spatial-Peak Pulse-Average Intensity, i.e. 22% duty cycle). The mechanical index (MI) of the focus was 0.8 (corresponding to peak negative pressure of 391 kPa). The temperature of the solution was monitored. […] The obtained samples underwent High Performance Liquid Chromatography (HPLC) for the measurement of phenytoin concentration after the calibration of the known absolute level of the phenytoin. The HPLC system consisted of an autosampler, a dual piston pump, and an electrochemical detector coupled to a guard cell and an analytical cell.

[3] = rat, in vivo
Method: In this example the effects of focused ultrasound (FUS) on unbinding phenytoin from albumin was evaluated in an animal model (rat). The enhancement of phenytoin was assessed using immunohistochemistry (IHC) followed by intraperitoneal injection of phenytoin and subsequent sonication of the unilateral hemisphere. All IHC was performed on an automated staining platform. Hematoxylin and eosin (H&E) staining was also performed to assess for tissue hemorrhage. The same sonication parameters and device were used as in the first example described above except the sonication was delivered for 35 minutes.
FUS was delivered to the brain areas in the right hemisphere at a fundamental frequency of 250 kHz in a pulsed manner (55 ms TBD, 4 Hz PRF, at 5 W/cm^2 Isppa) for 35 minutes. FIG. 4 illustrates example mosaic H&E microscope images 402, example, mosaic phenytoin-stained IHC images 404 and example inverted grayscale images 406 of the phenytoin IHC in accordance with an embodiment. […] In the IHC images 404, the dotted ovals 408 indicate the approximate location of the FUS sonication focus (in the right hemisphere of the brain).

bovine serum albumin (BSA), sequence (P02769 25-607): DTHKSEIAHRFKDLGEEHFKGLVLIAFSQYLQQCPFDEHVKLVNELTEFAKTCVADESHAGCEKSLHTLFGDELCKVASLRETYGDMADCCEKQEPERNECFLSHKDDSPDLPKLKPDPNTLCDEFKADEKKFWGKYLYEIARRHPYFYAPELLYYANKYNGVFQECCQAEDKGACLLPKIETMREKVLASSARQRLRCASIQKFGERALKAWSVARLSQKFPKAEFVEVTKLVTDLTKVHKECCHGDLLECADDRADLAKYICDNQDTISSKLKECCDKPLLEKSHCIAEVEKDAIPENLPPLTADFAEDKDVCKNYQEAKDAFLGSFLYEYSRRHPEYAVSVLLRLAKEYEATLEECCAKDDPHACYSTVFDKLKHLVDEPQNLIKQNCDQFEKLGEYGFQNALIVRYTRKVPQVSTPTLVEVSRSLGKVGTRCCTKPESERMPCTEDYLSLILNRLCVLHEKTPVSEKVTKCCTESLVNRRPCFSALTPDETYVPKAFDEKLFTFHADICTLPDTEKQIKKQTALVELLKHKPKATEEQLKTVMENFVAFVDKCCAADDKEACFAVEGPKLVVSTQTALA

phenytoin level in dialysate ([2]; at the acoustic focus (FF), n=6): 1.38 ± 0.2 µg/mL | elevation of unbound phenytoin level at the focus ([2]; compared to outside of focus): ~21.4% | elevation of unbound phenytoin level at the focus ([2]; compared to the control): approximately 27.7% | averaged phenytoin level in dialysate ([2]; control chamber (CTRL), not sonicated, n=12): 1.52 ± 0.16 µg/mL | phenytoin level in dialysate ([2]; outside of focus (FO), n=12): 1.13 ± 0.08 µg/mL | difference in phenytoin level between control condition and outside of focus ([2]; p>0.1): no significant difference
Structure (SMILES): O=C1NC(=O)C(c2ccccc2)(c2ccccc2)N1 [phenytoin]
fraction available in an unbound state ([1]; at clinical dose): ~12% | binding level to plasma proteins ([1]; primarily to albumin): approximately 90% | tissue injury or hemorrhage (H&E) [3]: no evidence of tissue injury or hemorrhage
